Patent US20210346357A1 (priority 2020, published 2021)

Tested on: Symptomatic Acute Lung Injury Associated with COVID-19
Test: Phase 2 study Part 1, inhaled compound 1 in hospitalized COVID-19 patients
Settings: for # Subjects Respiratory Failure-Free / # Subjects Alive: number of subjects; for IFN-γ, within-group percent difference in geometric mean from baseline / IL-6, within-group percent difference in geometric mean from baseline / IL-8, within-group percent difference in geometric mean from baseline / IL-10, within-group percent difference in geometric mean from baseline / IP-10, within-group percent difference in geometric mean from baseline / MCP-1, within-group percent difference in geometric mean from baseline / MDC, within-group percent difference in geometric mean from baseline / RAGE, within-group percent difference in geometric mean from baseline / TARC, within-group percent difference in geometric mean from baseline / hsCRP, within-group percent difference in geometric mean from baseline: matched D1 and D7 samples; for Time to Hospital Discharge (Days) Mean ± SD: still hospitalized or died = 28 days; for # Subjects Alive, percent / Died (All-Cause Mortality), number / # Subjects Alive: through Day 28
[1] = COVID-19 patients, 3 mg, Day 28
[2] = COVID-19 patients, 10 mg, Day 7
[3] = COVID-19 patients, 10 mg, Day 14
[4] = COVID-19 patients, 10 mg, Day 21
[5] = COVID-19 patients, 10 mg, Day 28
[6] = mostly in the 3 mg and 10 mg doses

SMILES: CCc1cc(O)ccc1-c1ccc2c(-c3nc4c([nH]3)CN(C(C)C)[C@H](C(=O)N3CC(N(C)C)C3)C4)n[nH]c2c1 [Compound 1, (S)-(3-(dimethylamino)azetidin-1-yl)(2-(6-(2-ethyl-4-hydroxyphenyl)-1H-indazol-3-yl)-5-isopropyl-4,5,6,7-tetrahydro-3H-imidazo[4,5-c]pyridin-6-yl)methanone]
- Hospital Discharge, number [1]: 7
- Hospital Discharge, percent [1]: 100%
- Proportion of Subjects Alive and Respiratory Failure-free [1]: 85.7%
- Proportion of Subjects Alive and Respiratory Failure-free, number [1]: 6
- # Subjects Respiratory Failure-Free [1]: 6
- IFN-γ, within-group percent difference in geometric mean from baseline (COVID-19 patients, 3 mg): −90.42%
- IL-6, within-group percent difference in geometric mean from baseline (COVID-19 patients, 3 mg): −80.24%
- IL-8, within-group percent difference in geometric mean from baseline (COVID-19 patients, 3 mg): −48.02%
- IL-10, within-group percent difference in geometric mean from baseline (COVID-19 patients, 3 mg): −70.10%
- IP-10, within-group percent difference in geometric mean from baseline (COVID-19 patients, 3 mg): −81.44%
- MCP-1, within-group percent difference in geometric mean from baseline (COVID-19 patients, 3 mg): −54.15%
- MDC, within-group percent difference in geometric mean from baseline (COVID-19 patients, 3 mg): −23.84%
- RAGE, within-group percent difference in geometric mean from baseline (COVID-19 patients, 3 mg): −82.95%
- TARC, within-group percent difference in geometric mean from baseline (COVID-19 patients, 3 mg): −34.57%
- hsCRP, within-group percent difference in geometric mean from baseline (COVID-19 patients, 3 mg): −74.95%
- Time to Hospital Discharge (Days) Mean ± SD (COVID-19 patients, 3 mg): 15.29 ± 6.651 days
- # Subjects Alive, percent (COVID-19 patients, 3 mg): 100.0%
- Died (All-Cause Mortality), number (COVID-19 patients, 3 mg): 0
- # Subjects Alive (COVID-19 patients, 3 mg): 7
- Clinical Status at Day 28: 1-Not hospitalized, no limitations on activities, number (COVID-19 patients, 10 mg): 5
- Clinical Status at Day 28: 1-Not hospitalized, no limitations on activities, percent (COVID-19 patients, 10 mg): 83.3%
- Clinical Status at Day 28: 2-Not hospitalized, but with limitations on activities and/or requiring home oxygen, number (COVID-19 patients, 10 mg): 1
- Clinical Status at Day 28: 2-Not hospitalized, but with limitations on activities and/or requiring home oxygen, percent (COVID-19 patients, 10 mg): 16.7%
- Clinical Status at Day 28: 3-Hospitalized, not requiring supplemental oxygen, and no longer requiring ongoing medical care, number (COVID-19 patients, 10 mg): 0
- Clinical Status at Day 28: 4-Hospitalized, not requiring supplemental oxygen, but requiring ongoing medical care, number (COVID-19 patients, 10 mg): 0
- Clinical Status at Day 28: 5-Hospitalized, requiring supplemental oxygen, number (COVID-19 patients, 10 mg): 0
- Clinical Status at Day 28: 6-Hospitalized, on non-invasive ventilation or high-flow oxygen devices, number (COVID-19 patients, 10 mg): 0
- Clinical Status at Day 28: 7-Hospitalized, on invasive mechanical ventilation or extracorporeal membrane oxygenation, number (COVID-19 patients, 10 mg): 0
- Clinical Status at Day 28: 8-Death, number (COVID-19 patients, 10 mg): 0
- Still in Hospital at Day 28, number (COVID-19 patients, 10 mg): 0
- Time to Hospital Discharge (Days) Median (COVID-19 patients, 10 mg): 16.50 days
- Modified Borg Dyspnea Score, Baseline, Mean (COVID-19 patients, 10 mg group, baseline value): 6.00
- Modified Borg Dyspnea Score Change from Baseline, Mean (COVID-19 patients, 10 mg, Day 2): −0.33
- Modified Borg Dyspnea Score Change from Baseline, Mean (COVID-19 patients, 10 mg, Day 3): −1.17
- Modified Borg Dyspnea Score Change from Baseline, Mean (COVID-19 patients, 10 mg, Day 4): −1.50
- Modified Borg Dyspnea Score Change from Baseline, Mean (COVID-19 patients, 10 mg, Day 5): −1.17
- Modified Borg Dyspnea Score Change from Baseline, Mean (COVID-19 patients, 10 mg, Day 6): −1.33
- Hospital Discharge, number [2]: 0
- Modified Borg Dyspnea Score Change from Baseline, Mean [2]: −1.67
- Hospital Discharge, number [3]: 2
- Hospital Discharge, percent [3]: 33.3%
- Hospital Discharge, number [4]: 6
- Hospital Discharge, percent [4]: 100%
- # Subjects Respiratory Failure-Free, percent [5]: 100.0%
- Hospital Discharge, number [5]: 6
- Hospital Discharge, percent [5]: 100%
- Proportion of Subjects Alive and Respiratory Failure-free [5]: 100.0%
- Proportion of Subjects Alive and Respiratory Failure-free, number [5]: 6
- # Subjects Respiratory Failure-Free [5]: 6
- IFN-γ, within-group percent difference in geometric mean from baseline (COVID-19 patients, 10 mg): −78.59%
- IL-6, within-group percent difference in geometric mean from baseline (COVID-19 patients, 10 mg): −58.84%
- IL-8, within-group percent difference in geometric mean from baseline (COVID-19 patients, 10 mg): −25.87%
- IL-10, within-group percent difference in geometric mean from baseline (COVID-19 patients, 10 mg): −40.57%
- IP-10, within-group percent difference in geometric mean from baseline (COVID-19 patients, 10 mg): −79.32%
- MCP-1, within-group percent difference in geometric mean from baseline (COVID-19 patients, 10 mg): −21.15%
- MDC, within-group percent difference in geometric mean from baseline (COVID-19 patients, 10 mg): −6.70%
- RAGE, within-group percent difference in geometric mean from baseline (COVID-19 patients, 10 mg): −54.44%
- TARC, within-group percent difference in geometric mean from baseline (COVID-19 patients, 10 mg): −21.21%
- hsCRP, within-group percent difference in geometric mean from baseline (COVID-19 patients, 10 mg): −52.13%
- Time to Hospital Discharge (Days) Mean ± SD (COVID-19 patients, 10 mg): 15.17 ± 4.446 days
- # Subjects Alive, percent (COVID-19 patients, 10 mg): 100.0%
- Died (All-Cause Mortality), number (COVID-19 patients, 10 mg): 0
- # Subjects Alive (COVID-19 patients, 10 mg): 6
- tolerability (COVID-19 patients, single daily dose of 1 mg, 3 mg, and 10 mg for up to 7 days): generally well tolerated
- % subjects alive/reduced mortality, compared to Placebo (all compound 1 groups): positive trend
- % subjects respiratory-failure free at Day 28, compared to Placebo (all compound 1 groups): positive trend
- clinical improvement, 8-point Clinical Status Scale from Day 1 to Day 28, compared to Placebo (all compound 1 groups): positive trend
- earlier time to hospital discharge, compared to Placebo (all compound 1 groups): positive trend
- improvement in Modified Borg Dyspnea Score in mean change from baseline at Day 7, compared to Placebo (all compound 1 groups): positive trend
- reduction in alveolar epithelial cell injury marker RAGE [6]: positive trend
- reduction of inflammation markers including hsCRP, IFN-g, IL-6, IP-10 [6]: positive trend
